Laboratory results: patent US6464988B1, “Glipizide-cyclodextrin inclusion complexes and their pharmaceutical composition” (USV Limited, priority 2001, dated 2002)

Assay: In-vitro dissolution studies (% release of glipizide)
Type: physicochemical
Conditions: containing 10 mg of Glipizide

1-cyclohexyl -3-[[p-[2-(methylpyrazinecarboxamido)ethyl]phenyl]sulfonyl]urea [Glipizide]
% release of glipizide (0.1N Hydrochloric acid, 200 ml, 5 mins): 14-18%
% release of glipizide (0.1N Hydrochloric acid, 200 ml, 15 mins): 23-24%
% release of glipizide (0.1N Hydrochloric acid, 200 ml, 30 mins): 23-26%
% release of glipizide (0.1N Hydrochloric acid, 400 ml, 5 mins): 16-20%
% release of glipizide (0.1N Hydrochloric acid, 400 ml, 15 mins): 26-27%
% release of glipizide (0.1N Hydrochloric acid, 400 ml, 30 mins): 26-30%
% release of glipizide (0.1N Hydrochloric acid, 900 ml, 5 mins): 16-18%
% release of glipizide (0.1N Hydrochloric acid, 900 ml, 15 mins): 22-26%
% release of glipizide (0.1N Hydrochloric acid, 900 ml, 30 mins): 24-27%
% release of glipizide (Phosphate Buffer pH 6.8 USP, 200 ml, 5 mins): 23-27%
% release of glipizide (Phosphate Buffer pH 6.8 USP, 200 ml, 15 mins): 65-67%
% release of glipizide (Phosphate Buffer pH 6.8 USP, 200 ml, 30 mins): 64-67%
% release of glipizide (Phosphate Buffer pH 6.8 USP, 400 ml, 5 mins): 24-29%
% release of glipizide (Phosphate Buffer pH 6.8 USP, 400 ml, 15 mins): 64-69%
% release of glipizide (Phosphate Buffer pH 6.8 USP, 400 ml, 30 mins): 65-67%
% release of glipizide (Phosphate Buffer pH 6.8 USP, 900 ml, 5 mins): 25-28%
% release of glipizide (Phosphate Buffer pH 6.8 USP, 900 ml, 15 mins): 55-62%
% release of glipizide (Phosphate Buffer pH 6.8 USP, 900 ml, 30 mins): 65-68%
% release of glipizide (Purified water pH 7.0, 200 ml, 5 mins): 30-32%
% release of glipizide (Purified water pH 7.0, 200 ml, 15 mins): 38-40%
% release of glipizide (Purified water pH 7.0, 200 ml, 30 mins): 39-41%
% release of glipizide (Purified water pH 7.0, 400 ml, 5 mins): 32-34%
% release of glipizide (Purified water pH 7.0, 400 ml, 15 mins): 40-42%
% release of glipizide (Purified water pH 7.0, 400 ml, 30 mins): 40-44%
% release of glipizide (Purified water pH 7.0, 900 ml, 5 mins): 20-25%
% release of glipizide (Purified water pH 7.0, 900 ml, 15 mins): 30-33%
% release of glipizide (Purified water pH 7.0, 900 ml, 30 mins): 38-41%
